The values that follow are results of earlier work, collected in paper PMC12655172, “Borylated 5-Membered Ring Iminosugars: Synthesis and Biological Evaluation for Glycosidase Inhibition and Anticancer Properties for Application in Boron Neutron Capture Therapy (BNCT)—Part 2” (Pharmaceuticals, 2025).

The IC50 is the midpoint of a concentration-inhibition curve.

Series [1] concerns the target β-glucosidase (almond). Details: method as in PMID 33228403. Conditions: cited from earlier work.
The target of series [2] is amyloglucosidase. Conditions: read-out: IC50 amyloglucosidase; cited from earlier work.
Series [3] relates to β-D-galactosidase (E. coli). Conditions: cited from earlier work.
The subject of series [4] is T1, α-D-mannosidase (Jack bean).
T1 construct: purchased Sigma-Aldrich; host or cells: Jack bean
The settings on record: cited from earlier work.

Series [5] has as its system α-D-galactosidase (coffee bean). The settings on record: cited from earlier work.
Series [6] has as its system β-D-glucosidase (almond). Also noted: method as in PMID 41011173. Conditions: cited from earlier work.
Series [7] deals with β-D-glucosidase (almond). Details: method as in PMID 41011173. Conditions: Table 3 type assay; cited from earlier work.
For series [8], the target named is T2, β-D-glucosidase (bovine liver) (Bos taurus, UniProt F1MNT6).
T2 sequence (F1MNT6 1-469): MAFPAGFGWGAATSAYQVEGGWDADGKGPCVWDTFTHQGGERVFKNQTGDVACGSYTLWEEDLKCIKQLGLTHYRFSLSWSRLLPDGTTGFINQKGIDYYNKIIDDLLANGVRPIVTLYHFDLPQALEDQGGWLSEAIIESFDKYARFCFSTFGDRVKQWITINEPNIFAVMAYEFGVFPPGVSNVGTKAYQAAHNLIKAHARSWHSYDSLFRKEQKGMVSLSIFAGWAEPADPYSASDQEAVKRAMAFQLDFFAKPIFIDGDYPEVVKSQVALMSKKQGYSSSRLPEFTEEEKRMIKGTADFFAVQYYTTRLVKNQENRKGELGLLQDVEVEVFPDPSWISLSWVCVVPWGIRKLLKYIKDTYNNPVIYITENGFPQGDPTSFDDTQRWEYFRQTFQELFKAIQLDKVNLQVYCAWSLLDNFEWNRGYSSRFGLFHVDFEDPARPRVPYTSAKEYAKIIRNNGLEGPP
Details: method as in PMID 41011173. The settings on record: cited from earlier work.

Series [9] concerns the target α-glucosidase (endoplasmatic reticulum I). Details: method as in PMID 19294724. Conditions: cited from earlier work.
The target of series [10] is α-glucosidase (endoplasmatic reticulum II). Details: method as in PMID 19294724. Conditions: cited from earlier work.
In series [11] the test system is α-L-fucosidase. Also noted: method as in PMID 2706004. Conditions: cited from earlier work.
Series [12] concerns the target α-D-glucosidase. Also noted: method as in PMID 31557624. Conditions: cited from earlier work.
The subject of series [13] is α-D-mannosidase (neutral). Also noted: method as in PMID 8457203. Conditions: cited from earlier work.
Series [14] has as its system α-D-mannosidase (lysosomal acidic). Details: method as in PMID 8457203. The settings on record: cited from earlier work.
Series [15] deals with α-D-mannosidase (Golgi II). Details: method as in PMID 8457203. Conditions: cited from earlier work.
Series [16] concerns the target α-D-mannosidase (fruit fly Golgi II). Also noted: method as in PMID 29323461. The settings on record: cited from earlier work.
Series [17] concerns the target α-D-mannosidase (fruit fly lysosomal acidic). Also noted: method as in PMID 29323461. Conditions: cited from earlier work.

With `OC[C@H]1NC[C@H](O)[C@@H](O)[C@@H]1O` [1-DNJ], the IC50 in series [1] is […]; in series [2] it was 2.1 µM.
With `Cl.OC[C@@H](O)[C@H]1[C@H](O)[C@H](O)CN1Cc1ccccc1B(O)O` [N-(2-Methylphenylboronic acid)-1,4-dideoxy-1,4-imino-D-talitol.HCl], the “inhibition β-D-galactosidase (E. coli)” value in series [3] is listed as “β-D-Galactosidase (E. coli) (44–55%)”. In addition, in series [4], the “inhibition α-D-mannosidase (Jack bean)” value is recorded as 10%. In series [5], the “inhibition α-D-galactosidase (coffee bean)” value is on record as less than 5%.
Regarding `OB(O)c1ccc(CN2C[C@@H](O)[C@H]3OC(O)[C@H](O)[C@H]32)cc1` (stereo partly drawn) [para 7, N-(4-methylphenylboronic acid)-3,6-dideoxy-3,6-imino-D-gulofuranose], the “inhibition % β-D-Glucosidase Almond” value in series [6] is listed as 43.6%. In addition, in series [7], the “Percentage inhibition β-D-Glucosidase Almond” value is 68.1%. Besides, the “inhibition % β-D-Glucosidase Bovine Liver” value in [8] is reported as 38.8%.
As to `CCCCN1C[C@H](O)[C@@H](O)[C@H](O)[C@H]1CO` [N-Butyl-DNJ], the IC50 in series [9] is 0.68 µM; in series [10] it was 10.8 µM.
`OC[C@@H](O)[C@@H]1[C@@H](O)[C@@H](O)CN1Cc1ccccc1` [N-Benzyl-1,4-dideoxy-1,4-imino-D-allitol]: the “inhibition α-L-fucosidase” value in [11] was “α-L-Fucosidase (76%)”.
For the molecule `Cl.OC[C@@H](O)[C@H]1[C@H](O)[C@H](O)CN1Cc1ccccc1` [N-Benzyl-1,4-dideoxy-1,4-imino-D-talitol.HCl], the “inhibition β-D-galactosidase (E. coli)” value in [3] is “poorly inhibited”. Further, the “inhibition α-D-mannosidase (Jack bean)” value in series [4] is “poorly inhibited”. Moreover, in series [5], the “inhibition α-D-galactosidase (coffee bean)” value is “poorly inhibited”.
On to `OC[C@@H](O)[C@H]1[C@H](O)[C@@H](O)CN1Cc1ccccc1` [N-benzyl-1,4-dideoxy-1,4-imino-D-galactitol], for which, in series [12], the IC50 was 40.6 µM and the “inhibition α-D-glucosidase” value is recorded as 93.2%.
`Cl.OC[C@@H](O)[C@@H]1[C@H](O)[C@H](O)CN1Cc1ccccc1` [N-benzyl-1,4-dideoxy-1,4-imino-D-mannitol.HCl]: in series [13], the “inhibition α-D-mannosidase neutral” value is given as 44%. The “inhibition α-D-mannosidase lysosomal acidic” value in [14] was 34%. The “inhibition α-D-mannosidase Golgi II” value in series [15] is recorded as 72%. Further, the 50% inhibitory concentration (IC50) in series [16] is 690 µM; in [17], 1500 µM.
